Values of other authors in US20080280370A1, “METHODS AND COMPOSITIONS FOR DETECTING […] METABOLITES THEREOF” (priority 2007, published 2008).

Key:
[1] = molecular target: T1, EPSPS (enolpyruvylshikimate-3-phosphate synthase) enzyme (Arabidopsis thaliana, UniProt P05466); conditions: enzyme required for biosynthesis of aromatic amino acids in plants
T1 sequence (P05466 77-520): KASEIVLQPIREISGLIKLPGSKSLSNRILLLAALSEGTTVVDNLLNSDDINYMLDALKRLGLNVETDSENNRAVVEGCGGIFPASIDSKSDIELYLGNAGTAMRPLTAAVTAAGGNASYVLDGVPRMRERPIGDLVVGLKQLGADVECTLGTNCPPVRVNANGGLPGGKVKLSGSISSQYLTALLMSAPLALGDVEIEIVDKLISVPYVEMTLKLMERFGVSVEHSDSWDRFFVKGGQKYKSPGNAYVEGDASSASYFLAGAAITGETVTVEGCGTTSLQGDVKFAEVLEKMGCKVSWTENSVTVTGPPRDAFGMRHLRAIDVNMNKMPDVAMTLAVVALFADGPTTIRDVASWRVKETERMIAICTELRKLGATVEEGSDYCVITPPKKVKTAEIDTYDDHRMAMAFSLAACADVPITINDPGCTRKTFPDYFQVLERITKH

[2] = test system: plants; conditions: metabolite formed by glyat acetylation; Castle et al. (2004)

Row | Compound | Effect on EPSPS enzyme [1] | Phytotoxicity [2]
1 | O=C(O)CNCP(=O)(O)O [glyphosate, N-(phosphonomethyl)glycine] | inhibits | –
2 | CC(=O)N(CC(=O)O)CP(=O)(O)O [N-acetylglyphosate, N-Acetyl-N-(phosphonomethyl)glycine] | – | non-phytotoxic
